The results in this text go back to PMC6300691, “Enhancement of Heat Stability and Kinetic Parameters of the Maize Endosperm ADP-Glucose Pyrophosphorylase by Mutagenesis of Amino Acids in the Small Subunit With High B Factors” (Frontiers in Plant Science, 2018).

The term Km denotes the concentration of substrate that gives half-maximal velocity.

The target of assay [1] is T1, wt (SH2-WT/BT2-WT) (Zea mays, UniProt P55241+Q947C0). How it is done:
All reactions were developed as above. The activation constant was fitted to the following equation, V = Vmin + Vmax^∗X/(Ka + X), since several enzymes had appreciable activity in the absence of activator. Here, Vmin is the velocity in the absence of activator and Vmax is the change in activity from Vmin to the total velocity, X is the activator concentration, Ka is the activation constant. All linear regressions were carried out using the software program Prism (GraphPad, San Diego, CA, United States).

In assay [2] the target is K403R (Zea mays, UniProt P55241+Q947C0, K403R). The assay is described as follows: Activation constant from initial rates with varied 3-PGA (0-1 mM) at 2 mM ATP and 2 mM G-1-P, pH 7.4, 15 mM MgCl2, fitted to V = Vmin + Vmax*X/(Ka + X). The arrangement: BT2 variant with wild type SH2, E. coli, purified. It is filed as biochemical. An excerpt:
All reactions were developed as above.

For assay [3], the target named is T2, SH2-ISM (Zea mays, UniProt P55241+Q947C0, Q96G/D161G/A443R).
T2 construct: SH2-ISM with wild type BT2 (SH2-ISM/BT2-WT), E. coli, purified
T2 sequence (Q947C0 1-475): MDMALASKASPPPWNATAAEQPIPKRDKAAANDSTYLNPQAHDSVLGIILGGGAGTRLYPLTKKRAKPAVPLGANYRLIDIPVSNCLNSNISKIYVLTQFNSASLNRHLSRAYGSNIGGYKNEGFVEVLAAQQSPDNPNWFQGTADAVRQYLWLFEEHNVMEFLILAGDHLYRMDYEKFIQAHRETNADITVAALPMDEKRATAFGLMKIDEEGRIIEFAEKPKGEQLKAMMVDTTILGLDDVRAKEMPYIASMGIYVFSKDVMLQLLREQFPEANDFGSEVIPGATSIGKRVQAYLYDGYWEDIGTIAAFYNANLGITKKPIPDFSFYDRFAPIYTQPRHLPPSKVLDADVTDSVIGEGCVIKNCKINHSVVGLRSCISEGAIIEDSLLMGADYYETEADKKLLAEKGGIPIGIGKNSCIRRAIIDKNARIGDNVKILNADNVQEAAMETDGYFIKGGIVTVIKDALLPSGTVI
T2 sequence (P55241 46-516 Q96G/D161G/A443R): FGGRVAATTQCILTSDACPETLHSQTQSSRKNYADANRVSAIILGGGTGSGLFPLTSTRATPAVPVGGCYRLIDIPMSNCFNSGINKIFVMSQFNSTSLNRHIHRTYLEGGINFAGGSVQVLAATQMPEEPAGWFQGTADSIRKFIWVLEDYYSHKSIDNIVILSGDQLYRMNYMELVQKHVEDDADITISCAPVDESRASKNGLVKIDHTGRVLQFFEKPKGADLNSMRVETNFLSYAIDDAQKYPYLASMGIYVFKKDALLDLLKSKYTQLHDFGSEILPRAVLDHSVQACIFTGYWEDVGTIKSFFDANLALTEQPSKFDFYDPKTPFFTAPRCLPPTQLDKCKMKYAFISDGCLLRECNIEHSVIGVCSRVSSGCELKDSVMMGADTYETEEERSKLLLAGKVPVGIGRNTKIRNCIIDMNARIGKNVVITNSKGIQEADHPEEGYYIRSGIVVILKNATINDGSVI
The experiment in a line: Initial-rate assay without 3-PGA, ATP and G-1-P both varied (0.01-10 mM and 0.1-25 mM), global fit to a sequential mechanism. It is filed as biochemical. Particulars: read-out: ATP Km (absence of 3-PGA). An excerpt:
(§1) Activity in the absence of the activator 3PGA was examined. While 3PGA is a noted activator for plant AGPase, the mechanism of activation differs for the various AGPases. […] Thus, the term “activation fold” in the literature is merely an activity reported at single fixed substrate concentrations.
(§2) The small subunit mutant, MP, contains the first 198 amino acids of the small subunit of the maize endosperm enzyme and the last 277 amino acids from the potato tuber enzyme resulting in thirty-three amino acid sites that differ from the maize endosperm enzyme ([Cross et al., 2004]).

The target of assay [4] is T3, SH2-ISM/BT2-BF (Zea mays, UniProt P55241+Q947C0, Q96G/E123G/D161G/R331K/K402R/A443R).
T3 construct: SH2-ISM co-expressed with BT2-BF, E. coli, purified
T3 sequence (Q947C0 1-475 E123G/R331K/K402R): T2 sequence (Q947C0 1-475) with E123G, R331K, K402R
T3 sequence (P55241 46-516 Q96G/D161G/A443R): T2 sequence (P55241 46-516 Q96G/D161G/A443R)
Described as above. Particulars: read-out: ATP Km (absence of 3-PGA). It is filed as biochemical.
Excerpt: as §1, §2

Assay [5] addresses T4, E123G, R331K, K402R (BT2-BF) (Zea mays, UniProt P55241+Q947C0, E123G/R331K/K402R).
T4 construct: BT2-BF with wild type SH2 (SH2-WT/BT2-BF), E. coli, purified
T4 sequence (Q947C0 1-475 E123G/R331K/K402R): T2 sequence (Q947C0 1-475) with E123G, R331K, K402R
T4 sequence (P55241 46-516): T2 sequence (P55241 46-516 Q96G/D161G/A443R) with G51Q, G116D, R398A
The experiment in a line: Pi inhibition study without 3-PGA, ATP varied (0.1-3 mM) at fixed Pi levels (10-30 mM) and sub-saturating G-1-P (1 mM), fit to mixed-type inhibition equations. In kind it is biochemical. The settings on record: read-out: Km (mM), varied substrate ATP, Pi inhibition in the absence of 3-PGA.
Method: (§3) Pi inhibition was carried out in both the presence and absence of 3-PGA with the Pi and substrate concentrations listed below.
(§4) Pi inhibition patterns in the presence and absence of 3PGA were also determined. Pi inhibition patterns were obtained by varying one substrate at several fixed concentrations of Pi, while holding the co-substrate at constant sub-saturating levels.

Assay [6] addresses T2, SH2-ISM. The description is as above. Particulars: read-out: Km (mM), varied substrate ATP, Pi inhibition in the absence of 3-PGA. In kind it is biochemical.
Method: as §3, §4
The target of assay [7] is T1, wt (SH2-WT/BT2-WT). The settings on record: read-out: Km (mM), varied substrate ATP, Pi inhibition in the absence of 3-PGA.
Method: as §3, §4

Where a chain is given by its changes, count along the chain named.

T1 sequence (P55241 46-516, one chain of several): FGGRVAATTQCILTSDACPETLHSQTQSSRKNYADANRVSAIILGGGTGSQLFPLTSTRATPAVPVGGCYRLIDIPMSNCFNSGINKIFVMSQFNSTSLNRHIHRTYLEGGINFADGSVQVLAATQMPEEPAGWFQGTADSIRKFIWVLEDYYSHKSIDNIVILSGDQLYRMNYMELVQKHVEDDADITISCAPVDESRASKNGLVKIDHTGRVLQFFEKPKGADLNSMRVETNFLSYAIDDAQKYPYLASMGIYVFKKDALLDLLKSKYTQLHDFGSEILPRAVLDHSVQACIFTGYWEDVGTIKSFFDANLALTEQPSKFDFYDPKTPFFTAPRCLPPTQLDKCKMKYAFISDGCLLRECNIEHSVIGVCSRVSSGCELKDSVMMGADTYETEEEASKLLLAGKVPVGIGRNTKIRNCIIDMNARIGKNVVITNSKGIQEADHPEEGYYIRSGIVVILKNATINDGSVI
K403R, sequence (Q947C0 1-475 K403R): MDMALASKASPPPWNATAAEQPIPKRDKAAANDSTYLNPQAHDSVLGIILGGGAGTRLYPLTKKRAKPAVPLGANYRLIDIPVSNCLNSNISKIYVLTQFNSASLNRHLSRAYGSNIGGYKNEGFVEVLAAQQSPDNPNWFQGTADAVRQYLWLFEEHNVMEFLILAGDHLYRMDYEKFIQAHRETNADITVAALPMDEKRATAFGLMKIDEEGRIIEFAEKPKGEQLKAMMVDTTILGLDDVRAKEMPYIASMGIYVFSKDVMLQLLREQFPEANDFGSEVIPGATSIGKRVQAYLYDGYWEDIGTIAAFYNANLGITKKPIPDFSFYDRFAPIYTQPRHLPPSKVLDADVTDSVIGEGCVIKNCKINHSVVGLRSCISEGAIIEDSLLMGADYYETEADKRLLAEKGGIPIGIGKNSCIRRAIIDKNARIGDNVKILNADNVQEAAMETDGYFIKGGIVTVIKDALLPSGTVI
K403R, sequence (P55241 46-516): as the sequence (P55241 46-516, one chain of several) above

For the compound `O=C(O)[C@H](O)COP(=O)(O)O` [3-PGA, 3-phosphoglycerate (3-phosphoglyceric acid)], the “3-PGA Ka (activation constant)” value came to 0.26 ± 0.061 in assay [1] and 0.22 ± 0.057 in assay [2].
For the compound `Nc1ncnc2c1ncn2[C@@H]1O[C@H](COP(=O)(O)OP(=O)(O)OP(=O)(O)O)[C@@H](O)[C@H]1O` [ATP, adenosine 5'-triphosphate], the Km stood at 100 ± 48 µM in assay [3]; 510 ± 100 µM in assay [4]; 0.79 ± 0.075 mM in assay [5]; 0.54 ± 0.057 mM in assay [6]; 20.4 ± 10.1 mM in assay [7].
